By solubility is commonly meant how much of the substance goes into solution per volume. A lower solubility goes with a poorly soluble substance. In general, Papp refers to the rate of passage across a membrane or cell layer, normalised by area and donor concentration. What is called IC50 is the concentration at which inhibition is half-maximal. By efflux ratio is commonly meant the permeability from basolateral to apical divided by that in the opposite direction, in the common usage.

These results are taken from ChEMBL document CHEMBL5625263, “Discovery of a novel series of selective macrocyclic PKCTheta inhibitors” (Bioorg Med Chem Lett, 2024).

A short description of data set [1]: Solubility of the compound. The data set is classed as physicochemical.
The nature of data set [2]: Metabolic stability in human hepatocytes assessed as intrinsic clearance measured per 10^6 cells. Type of data set: ADME, cell-based, Hepatocyte. The conditions noted are these: read-out: CLH.
The nature of data set [3]: Apparent permeability of a compound in human Caco-2 cells. The data set is classed as ADME, cell-based. In general terms: Passage across Caco-2 layers is used to estimate intestinal permeability.
Data set [4] addresses T1, Protein kinase C theta type (Homo sapiens, UniProt Q04759). Description: Inhibition of PKC theta (unknown origin) in presence of ATP at Km.
The target in data set [5] is T1, Protein kinase C theta type. Nature of the data set: Inhibition of PKC theta (unknown origin) in presence of 1 mM ATP.
Data set [6] has the same target. Description: Inhibition of PKC theta in TCR-stimulated human PBMC assessed as inhibition of IL-2 release. The data set is classed as cell-based.
Data set [7] addresses T2, Protein kinase C alpha type (Homo sapiens, UniProt P17252). Nature of the data set: Inhibition of PKC alpha (unknown origin) in presence of ATP at Km.
In data set [8] the target is T2, Protein kinase C alpha type. Description: Inhibition of PKC alpha (unknown origin) in presence of 1 mM ATP.
Data set [9] can be described thus: Efflux ratio of apparent permeability across basolateral to apical side over apical to basolateral side in human Caco-2 cells. Type of data set: ADME, cell-based.

Values after ≈ are worked out from the molar mass of the structure shown. Where only a bound is given, the exact number is not on record here.

T1 sequence (Q04759 whole entry): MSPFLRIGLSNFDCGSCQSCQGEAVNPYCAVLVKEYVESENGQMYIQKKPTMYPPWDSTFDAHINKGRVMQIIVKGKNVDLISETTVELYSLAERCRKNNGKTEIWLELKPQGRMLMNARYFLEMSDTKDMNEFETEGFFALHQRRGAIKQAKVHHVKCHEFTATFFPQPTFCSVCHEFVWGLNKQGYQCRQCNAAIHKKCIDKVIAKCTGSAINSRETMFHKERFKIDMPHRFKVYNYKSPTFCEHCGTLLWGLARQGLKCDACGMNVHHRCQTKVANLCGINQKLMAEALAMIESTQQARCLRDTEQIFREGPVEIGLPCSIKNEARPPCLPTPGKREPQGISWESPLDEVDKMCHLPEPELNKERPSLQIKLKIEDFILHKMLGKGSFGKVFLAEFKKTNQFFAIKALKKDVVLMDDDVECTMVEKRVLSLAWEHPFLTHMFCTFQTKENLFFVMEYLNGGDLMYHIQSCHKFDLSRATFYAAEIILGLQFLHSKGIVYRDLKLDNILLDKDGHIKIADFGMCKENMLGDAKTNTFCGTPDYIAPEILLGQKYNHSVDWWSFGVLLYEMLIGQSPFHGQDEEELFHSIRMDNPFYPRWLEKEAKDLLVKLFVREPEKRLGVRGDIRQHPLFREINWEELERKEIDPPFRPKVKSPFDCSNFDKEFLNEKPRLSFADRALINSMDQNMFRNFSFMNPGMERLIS

`O=c1ccn2c3nc(ccc13)-n1c(=O)[nH]c3nccc(c31)OCCCC2` came in with a solubility in data set [1] of 0.9 µM (≈ 0.314 µg/mL). Besides, the hepatocyte CLint in data set [2] turned out to be 6 µL/min/1e6 cells. Further, the Papp in data set [3] was determined as 0.2 ×10⁻⁶ cm/s.

With `C[C@H](c1ccccc1)N1c2cc(-n3c(=O)[nH]c4ncccc43)ccc2C(=O)NC1(C)C`, in [1], the solubility came out at 54 µM (≈ 22.3 µg/mL). Besides, in data set [2], the hepatocyte CLint was determined as 11 µL/min/1e6 cells. Moreover, the Papp in data set [3] is 7.4 ×10⁻⁶ cm/s.

Turning to `CC1(C)NC(=O)c2ccc3cc2N1CCCOc1ccnc2[nH]c(=O)n-3c12`, in data set [1], the concentration in solution (solubility) came to 9 µM (≈ 3.29 µg/mL). Besides, the Papp in [3] turned out to be 0.3 ×10⁻⁶ cm/s.

`CN1CCN(c2nc(C3=C(c4c[nH]c5ccccc45)C(=O)NC3=O)c3ccccc3n2)CC1` [SOTRASTAURIN]: the figures for the IC50 in [4], in data set [5] and in [6] were 0.7 nM, 3.4 nM and 49 nM, respectively.

`NC(=O)c1ccc2nc1OCCCCOc1ccnc3[nH]c(=O)n-2c13` had a solubility in [1] of 5.5 µM (≈ 1.88 µg/mL). Further, the Papp in [3] worked out at 0.2 ×10⁻⁶ cm/s.

`CC1CCCOc2nc(c(-c3ccn[nH]3)cc2C(N)=O)-n2c(=O)[nH]c3nccc(c32)O1` (centres undefined): the figures for the IC50 in [7] and in [4] were 8200 nM and 47 nM, respectively.

On to `CC1CCCOc2ccnc3[nH]c(=O)n(c23)-c2nc(c(C(N)=O)cc2-c2ncc[nH]2)O1` (centres undefined), for which the IC50 was 270 nM in data set [7]; 2200 nM in [8]; under 1 nM in data set [4]; 1.2 nM in data set [5]; 15 nM in [6]. In data set [2], the hepatocyte CLint came out at 22 µL/min/1e6 cells.

`CN1CCCCOc2ccnc3[nH]c(=O)n(c23)-c2ccc(C(N)=O)c1n2`: the solubility in data set [1] was 16 µM (≈ 5.67 µg/mL). The Papp in [3] was 2.2 ×10⁻⁶ cm/s.

In turn, `CC1(C)NC(=O)c2ccc3nc2N1CCCOc1ccnc2[nH]c(=O)n-3c12` returned a solubility in data set [1] of 1.9 µM (≈ 0.696 µg/mL). Moreover, the Papp in data set [3] was determined as 1.3 ×10⁻⁶ cm/s.

The compound `O=c1[nH]c2nccc3c2n1-c1cccc(n1)OCCCCO3` registered a solubility in [1] of 3 µM (≈ 0.895 µg/mL). Further, the IC50 was over 10000 nM in data set [7] and 9.2 nM in [4]. Also, the hepatocyte CLint in data set [2] came to 12 µL/min/1e6 cells. Also, the efflux ratio in [9] came out at 0.9. In addition, the Papp in data set [3] turned out to be 15 ×10⁻⁶ cm/s.

With `CC1CCC(C)c2ccnc3ccc(nc23)-n2c(=O)[nH]c3nccc(c32)O1` (centres undefined), the IC50 is 65 nM in [7]; 840 nM in data set [8]; under 0.5 nM in data set [4]; 3.9 nM in data set [5]; 28 nM in [6]. In addition, in data set [2], the hepatocyte CLint is 19 µL/min/1e6 cells.

For `CC1CCCn2ccc(=O)c3ccc(nc32)-n2c(=O)[nH]c3nccc(c32)O1` (centres undefined), in data set [1], the concentration in solution (solubility) came to 275 µM (≈ 99.9 µg/mL). Also, the IC50 is 880 nM in [7]; 6600 nM in data set [8]; 1.2 nM in [4]; 15 nM in [5]; 52 nM in data set [6]. Moreover, the hepatocyte CLint in data set [2] was under 4 µL/min/1e6 cells. In addition, the efflux ratio in [9] is 23. Moreover, the Papp in data set [3] came to 1.3 ×10⁻⁶ cm/s.

Take `CC1CCCOc2nc(c(-c3nnc[nH]3)cc2C(N)=O)-n2c(=O)[nH]c3nccc(c32)O1` (centres undefined): the IC50 in [7] amounted to 1100 nM; in [4], 3.3 nM; in [6], 160 nM.

On to `CC1(C)NC(=O)c2ccc3nc2N1CCCCOc1ccnc2[nH]c(=O)n-3c12`, for which, in [1], the solubility stood at 1.5 µM (≈ 0.571 µg/mL). The Papp in [3] is 0.1 ×10⁻⁶ cm/s.

In turn, `CC1CCCOc2cccc(n2)-n2c(=O)[nH]c3nccc(c32)O1` (centres undefined) came in with a solubility in data set [1] of 32 µM (≈ 9.99 µg/mL). Further, the IC50 is 1900 nM in data set [7]; over 10000 nM in data set [8]; 5 nM in data set [4]; 61 nM in data set [5]; 236 nM in data set [6]. For the same compound, the hepatocyte CLint in data set [2] was determined as 6.1 µL/min/1e6 cells. Further, the efflux ratio in data set [9] stood at 0.6. In addition, in [3], the Papp was 31 ×10⁻⁶ cm/s.

`CC1(C)NC(=O)c2ccc3cc2N1CCCCOc1ccnc2[nH]c(=O)n-3c12` yielded a solubility in data set [1] of 12 µM (≈ 4.55 µg/mL). The Papp in data set [3] stood at 0.7 ×10⁻⁶ cm/s.

Consider `CC1CCCOc2nc(c(-c3cnc[nH]3)cc2C(N)=O)-n2c(=O)[nH]c3nccc(c32)O1` (centres undefined), for which the IC50 in data set [7] is 920 nM; in data set [8], 6700 nM; in data set [4] it was 1.4 nM; in data set [5], 15 nM; in [6] it was 89 nM.

On to `CN1CCCCOc2ccnc3[nH]c(=O)n(c23)-c2cc1ccc2Cl`, for which, in [1], the solubility came out at 4 µM (≈ 1.38 µg/mL). Also, in data set [2], the hepatocyte CLint is under 1 µL/min/1e6 cells.
